Consider 4 molecules from publication PMC12722636, “Structural Pharmacology of Bufotenine Derivatives in Activating the 5-HT1A Receptor for Therapeutic Potential in Depression and Anxiety” (Research, 2025).

The test system of data set [1] is CUMS model mice. Description: Open-field test (OFT) in CUMS depression model. To be noted: 15 mg/kg i.p. for 1 week; for OFT time spent in the center / OFT total distance traveled: CUMS mice, regardless of 5-HT1AR knockdown, Fig. 6D.
For the next data set, the target named is T1, 5-HT2A receptor (Homo sapiens, UniProt P28223).
T1 construct: expressed in transfected cells; host or cells: HEK 293T
Briefly: cell-based. It is filed as cell-based.

Data set [2] relates to CUMS model mice. Description: Sucrose preference test (SPT) in CUMS depression model. The note with it: 15 mg/kg i.p. for 1 week, versus CUMS model, Fig. 6C.
For data set [3], the system named is mice. Briefly: Head-twitch response (HTR), side effect detection. The note with it: 25 mg/kg i.p., recorded 10 min, in contrast to 5-MeO-DMT, Fig. S10. It is filed as in vivo, C57BL/6 male mice. The method, then:
(§1) Then, HTR and HLA were immediately tested. Mice were placed into the observation arena (25 × 25 × 40 cm) under low-light conditions. The number of head-twitch events and total distance were respectively recorded for 10 and 30 min. For the HTR test, the number of head twitches was examined by 2 observers blinded to the treatments via video recordings. For the HLA test, the total distance traveled was measured by using tracking software to process video recordings.

For the next data set, the system named is 5-HT1A A365^6.55F mutant. Briefly: GloSensor cAMP assay on 5-HT1A mutant A365F. The note with it: mutant versus WT 5-HT1A, fold less potent, Fig. S7E. Background: cAMP levels reflect the balance of adenylyl cyclase and phosphodiesterase activity.
Data set [4] concerns PCPA-induced mouse model of depression and anxiety. Briefly: Forced swimming test (FST) in PCPA model. The data set is classed as in vivo, C57BL/6 male mice. To be noted: for Immobility time in FST: PCPA model, 5-OH-DMT 15 mg/kg i.p. or WAY100635 1 mg/kg i.p. for 3 d, versus control or model group, Fig. 6G. As for the experimental part: (§2) Mice in the control group were fed with saline solution containing 0.1% DMSO (vehicle) for 3 d. Mice that were injected subcutaneously with 150 mg/kg PCPA twice daily for 3 d developed symptoms of depression. […] For WAY100635 treatment, mice were injected intraperitoneally with 1 mg/kg WAY100635 for 3 d. […] Then, mice were tested for all behaviors.

For another data set, the target named is T2, 5-HT1A receptor (Homo sapiens, UniProt P08908).
T2 sequence (P08908 1-422): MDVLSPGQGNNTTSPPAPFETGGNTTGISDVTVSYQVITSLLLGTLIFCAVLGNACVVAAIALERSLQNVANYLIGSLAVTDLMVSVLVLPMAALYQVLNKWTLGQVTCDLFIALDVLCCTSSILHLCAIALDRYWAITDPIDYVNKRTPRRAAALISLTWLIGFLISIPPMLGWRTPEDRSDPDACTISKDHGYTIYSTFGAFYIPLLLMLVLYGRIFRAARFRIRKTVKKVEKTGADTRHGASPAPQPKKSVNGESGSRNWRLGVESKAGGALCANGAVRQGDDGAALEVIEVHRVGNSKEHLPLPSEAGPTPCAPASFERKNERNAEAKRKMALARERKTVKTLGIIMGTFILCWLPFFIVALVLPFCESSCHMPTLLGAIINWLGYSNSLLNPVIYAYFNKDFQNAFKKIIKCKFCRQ
Briefly: GloSensor cAMP assay, 5-HT1A Gi signaling in HEK 293T cells. The data set is classed as cell-based.

In data set [5] the test system is PCPA-induced mouse model of depression and anxiety. Description: Sucrose preference test (SPT) in PCPA model. The data set is classed as in vivo, C57BL/6 male mice. The note with it: for Sucrose preference: PCPA model, 5-OH-DMT 15 mg/kg i.p. or WAY100635 1 mg/kg i.p. for 3 d, versus control or model group, Fig. 6H. As for the experimental part: as §2
For data set [6] the test system is unchanged. Briefly: Tail suspension test (TST) in PCPA model. The note with it: for Immobility time in TST: PCPA model, 5-OH-DMT 15 mg/kg i.p. or WAY100635 1 mg/kg i.p. for 3 d, versus control or model group, Fig. 6F. It is filed as in vivo, C57BL/6 male mice. The method, then: as §2
Data set [7] has as its system mice. Briefly: Horizontal locomotor activity (HLA), side effect detection. To be noted: 25 mg/kg i.p., recorded 30 min, in contrast to 5-MeO-DMT, Fig. S10. It is filed as in vivo, C57BL/6 male mice. As for the experimental part:
as §1

For data set [8], the system named is PCPA-induced mouse model of depression and anxiety. Briefly: Open-field test (OFT) in PCPA model. The data set is classed as in vivo, C57BL/6 male mice. The note with it: for OFT time spent in center / OFT total distance traveled: PCPA model, 5-OH-DMT 15 mg/kg i.p. or WAY100635 1 mg/kg i.p. for 3 d, versus control or PCPA mice, Fig. 6I. As for the experimental part:
as §2

The mark [9] stands for this setting: PCPA + 5-OH-DMT 15 mg/kg + WAY100635 1 mg/kg i.p. versus PCPA + 5-OH-DMT.

Molecules are shown by their SMILES. Read-outs that look alike come from different tables or passages of the source.

T1 sequence (P28223 whole entry): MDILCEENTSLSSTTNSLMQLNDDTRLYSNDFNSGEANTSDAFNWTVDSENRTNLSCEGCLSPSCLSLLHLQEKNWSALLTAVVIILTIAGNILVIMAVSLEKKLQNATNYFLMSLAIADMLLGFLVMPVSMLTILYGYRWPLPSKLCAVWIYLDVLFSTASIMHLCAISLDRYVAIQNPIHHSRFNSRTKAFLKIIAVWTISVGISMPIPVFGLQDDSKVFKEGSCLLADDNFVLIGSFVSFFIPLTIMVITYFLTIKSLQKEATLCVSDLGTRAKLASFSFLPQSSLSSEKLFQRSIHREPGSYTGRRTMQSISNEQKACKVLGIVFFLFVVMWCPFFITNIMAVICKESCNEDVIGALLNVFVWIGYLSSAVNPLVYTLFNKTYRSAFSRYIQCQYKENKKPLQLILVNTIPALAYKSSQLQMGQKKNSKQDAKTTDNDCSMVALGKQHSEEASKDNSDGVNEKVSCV
Description for 5-HT1A A365^6.55F mutant: In order to examine the underlying mechanism of ligand selectivity, we introduced a mutation at position A365^6.55, replacing it with phenylalanine.
(§3) The downstream Gαi signaling of 5-HT1A was assessed using the GloSensor cAMP assay (Promega). HEK 293T cells were cultured in DMEM with 10% FBS and 1% penicillin–streptomycin at 37 °C and 5% CO2. Cells were transfected with 5-HT1A constructs and the GloSensor-22F biosensor at a 3:2 ratio. After 24 h, cells were resuspended in CO2-independent medium with 2% GloSensor reagent and plated at 3.5 × 10^5 cells/ml (20 μl/well) into 384-well plates. After 1-h incubation, forskolin (1 μM) and test ligands were added, and luminescence was immediately recorded using an EnVision plate reader (PerkinElmer).
WT or mutant were transfected into HEK293T cells and Glosenser cAMP assay were measured to reflect the activity of 5-HT1AR. The response data was normalized by WT receptor within each individual experiment, with the basal activity for WT as 0, while the fitted Emax of WT as 100. Three independent experiments were conducted (n=3).
Description for 5-HT1A receptor: as §3
(§4) An evaluation of the concentration–response curves was carried out using a logistic equation with 3 parameters. Calculations of pEC50 values were performed with the use of the sigmoid 3-parameter equation. In order to assess the significance, a 1-way or 2-way analysis of variance was conducted, followed by Bonferroni’s or Dunnett’s post hoc test. Differences were considered significant when P < 0.05 and are shown as *P < 0.05, **P < 0.01, or ***P < 0.001.
Excerpt for 5-HT2A receptor: We evaluated the impact of bufotenine derivatives on 6 serotonin receptor subtypes associated with depression (5-HT1A, 5-HT1B, 5-HT1D, 5-HT2A, 5-HT2C, and 5-HT7) using the GloSensor cAMP assay to measure Gi and Gs activation and the IP-One assay to assess Gq activation, thereby detecting signaling activity at each receptor. […] We conducted a thorough pharmacological analysis of bufotenine derivatives to evaluate their hallucinogenic potential via 5-HT2AR activation, comparing their receptor binding profiles and functional activities at 5-HT1AR and 5-HT2AR subtypes.
The downstream Gαq signaling of 5-HT2A was evaluated using the IP-One HTRF assay (Cisbio). HEK 293T cells were cultured in DMEM with 10% FBS and 1% penicillin–streptomycin at 37 °C, 5% CO2. After 24 h of transfection, cells were resuspended in stimulation buffer (8 × 10^5 cells/ml) and plated at 7 μl/well into 384-well plates. Ligands diluted in buffer (7 μl) were added and incubated for 1 h at 37 °C. IP-One-d2 and anti-IP-One cryptate (3 μl each) were then added, followed by 30-min incubation at room temperature. HTRF signals were measured using an EnVision reader (PerkinElmer).
as §4

Turning to `COc1ccc2[nH]cc(CCN(C)C)c2c1` [Compound 5-MeO-DMT, 5-methoxy-N,N-dimethyltryptamine], in the data set on CUMS model mice [1], the “OFT time spent in the center” value is “increased” and the “OFT total distance traveled” value is reported as “increased”. For the same molecule, the “OFT total distance after 5-HT1AR was knocked down” value in the data set on CUMS model mice [1] (CUMS, sh-5-HT1AR versus NC mice) is “reduced total distance”. In addition, the “Potency at 5-HT2AR compared to 5-OH-DMT” value at 5-HT2A receptor (ratio of EC50 values, times more potent) is recorded as 100 times. Also, the Sucrose preference result in the data set on CUMS model mice [2] is reported as “significantly counteract the reduction in sucrose preference induced by CUMS”.

By EC50 is commonly meant the concentration at which the effect is half-maximal. For `CN(C)CCc1c[nH]c2ccc(O)cc12` [Compound 5-OH-DMT, 5-hydroxy-N,N-dimethyltryptamine], in the data set on CUMS model mice [1], the “OFT time spent in the center” value was “increased” and the “OFT total distance traveled” value was “increased”. Further, the “Drop in potency with 5-HT2A” value at 5-HT2A receptor (5-HT2A relative to 5-HT1A, times lower, Fig. 1A) was “roughly 10 times”. Also, the “Head-twitch response (HTR)” value with mice [3] is “somewhat reduced”. The “Loss in potency at A365^6.55F mutant” value in the data set with 5-HT1A A365^6.55F mutant is “around 1,000 fold”. The “Immobility time in FST, with addition of WAY100635” value in data set [4] (setting [9]) is listed as “prolonged the immobility time”. In data set [4], the “Immobility time in FST” value is “shorter immobility durations”. The molecule also displayed an EC50 on 5-HT1A receptor of 0.1 µM. Also, the “Sucrose preference, with addition of WAY100635” value in data set [5] (setting [9]) is “this increase was reversed by WAY100635”. In addition, the Sucrose preference entry in data set [5] is reported as “increased sucrose preference”. Further, in the data set on CUMS model mice [2], the Sucrose preference result is “significantly counteract the reduction in sucrose preference induced by CUMS”. Moreover, the “Immobility time in TST, with addition of WAY100635” value in data set [6] (setting [9]) is given as “prolonged the immobility time”. For the same molecule, the “Immobility time in TST” value in [6] was “shorter immobility durations”. The “Horizontal locomotor activity (HLA), total distance” value in the data set with mice [7] is listed as “somewhat reduced”. Also, in data set [8] (setting [9]), the “OFT time spent in the center, with administration of WAY100635” value is “significantly recovered these changes” and the “OFT total distance, with administration of WAY100635” value is recorded as “significantly recovered these changes”. In data set [8], the “OFT time spent in center” value is “dramatically increased” and the “OFT total distance traveled” value is listed as “dramatically increased”.

Regarding `C[N+](C)(C)CCc1c[nH]c2ccc([O-])cc12` [Compound 5-OH-TMT, 5-hydroxy-N,N,N-dimethyltryptamine], the EC50 on 5-HT2A receptor was determined as 10 µM; at 5-HT1A receptor (GloSensor cAMP, Gi activation, HEK 293T, Fig. 1A, read-out: EC50 at 5-HT1AR), 10 µM.

Turning to `COc1ccccc1N1CCN(CCN(C(=O)C2CCCCC2)c2ccccn2)CC1` [WAY100635, reference compound], the “Immobility time in FST” value in data set [4] was “significantly increased immobility time”. In data set [5], the Sucrose preference entry is on record as “reduced sucrose preference”. Besides, the “Immobility time in TST” value in data set [6] is listed as “significantly increased immobility time”. Further, in [8], the “OFT time spent in center” value is given as “less time spent in center” and the “OFT total distance traveled” value is on record as “less total distance traveled”.
